In PMC6814258 (Pharmaceutical research, 2019) one finds inhibition data, which are given here for 54 compounds.

Where a name gives a salt, the structure may show the parent alone.

As a reminder, the inhibition is the relative decrease from the control value, in per cent.

This assay deals with Nav1.8 (Homo sapiens, UniProt Q9Y5Y9). In words: Nav1.8 FLIPR HTS. The assay is classed as cell-based. As to conditions: HEK293, read-out: Average percent inhibition at 10 μM (Nav1.8).
Sequence of Nav1.8 (Q9Y5Y9 whole entry): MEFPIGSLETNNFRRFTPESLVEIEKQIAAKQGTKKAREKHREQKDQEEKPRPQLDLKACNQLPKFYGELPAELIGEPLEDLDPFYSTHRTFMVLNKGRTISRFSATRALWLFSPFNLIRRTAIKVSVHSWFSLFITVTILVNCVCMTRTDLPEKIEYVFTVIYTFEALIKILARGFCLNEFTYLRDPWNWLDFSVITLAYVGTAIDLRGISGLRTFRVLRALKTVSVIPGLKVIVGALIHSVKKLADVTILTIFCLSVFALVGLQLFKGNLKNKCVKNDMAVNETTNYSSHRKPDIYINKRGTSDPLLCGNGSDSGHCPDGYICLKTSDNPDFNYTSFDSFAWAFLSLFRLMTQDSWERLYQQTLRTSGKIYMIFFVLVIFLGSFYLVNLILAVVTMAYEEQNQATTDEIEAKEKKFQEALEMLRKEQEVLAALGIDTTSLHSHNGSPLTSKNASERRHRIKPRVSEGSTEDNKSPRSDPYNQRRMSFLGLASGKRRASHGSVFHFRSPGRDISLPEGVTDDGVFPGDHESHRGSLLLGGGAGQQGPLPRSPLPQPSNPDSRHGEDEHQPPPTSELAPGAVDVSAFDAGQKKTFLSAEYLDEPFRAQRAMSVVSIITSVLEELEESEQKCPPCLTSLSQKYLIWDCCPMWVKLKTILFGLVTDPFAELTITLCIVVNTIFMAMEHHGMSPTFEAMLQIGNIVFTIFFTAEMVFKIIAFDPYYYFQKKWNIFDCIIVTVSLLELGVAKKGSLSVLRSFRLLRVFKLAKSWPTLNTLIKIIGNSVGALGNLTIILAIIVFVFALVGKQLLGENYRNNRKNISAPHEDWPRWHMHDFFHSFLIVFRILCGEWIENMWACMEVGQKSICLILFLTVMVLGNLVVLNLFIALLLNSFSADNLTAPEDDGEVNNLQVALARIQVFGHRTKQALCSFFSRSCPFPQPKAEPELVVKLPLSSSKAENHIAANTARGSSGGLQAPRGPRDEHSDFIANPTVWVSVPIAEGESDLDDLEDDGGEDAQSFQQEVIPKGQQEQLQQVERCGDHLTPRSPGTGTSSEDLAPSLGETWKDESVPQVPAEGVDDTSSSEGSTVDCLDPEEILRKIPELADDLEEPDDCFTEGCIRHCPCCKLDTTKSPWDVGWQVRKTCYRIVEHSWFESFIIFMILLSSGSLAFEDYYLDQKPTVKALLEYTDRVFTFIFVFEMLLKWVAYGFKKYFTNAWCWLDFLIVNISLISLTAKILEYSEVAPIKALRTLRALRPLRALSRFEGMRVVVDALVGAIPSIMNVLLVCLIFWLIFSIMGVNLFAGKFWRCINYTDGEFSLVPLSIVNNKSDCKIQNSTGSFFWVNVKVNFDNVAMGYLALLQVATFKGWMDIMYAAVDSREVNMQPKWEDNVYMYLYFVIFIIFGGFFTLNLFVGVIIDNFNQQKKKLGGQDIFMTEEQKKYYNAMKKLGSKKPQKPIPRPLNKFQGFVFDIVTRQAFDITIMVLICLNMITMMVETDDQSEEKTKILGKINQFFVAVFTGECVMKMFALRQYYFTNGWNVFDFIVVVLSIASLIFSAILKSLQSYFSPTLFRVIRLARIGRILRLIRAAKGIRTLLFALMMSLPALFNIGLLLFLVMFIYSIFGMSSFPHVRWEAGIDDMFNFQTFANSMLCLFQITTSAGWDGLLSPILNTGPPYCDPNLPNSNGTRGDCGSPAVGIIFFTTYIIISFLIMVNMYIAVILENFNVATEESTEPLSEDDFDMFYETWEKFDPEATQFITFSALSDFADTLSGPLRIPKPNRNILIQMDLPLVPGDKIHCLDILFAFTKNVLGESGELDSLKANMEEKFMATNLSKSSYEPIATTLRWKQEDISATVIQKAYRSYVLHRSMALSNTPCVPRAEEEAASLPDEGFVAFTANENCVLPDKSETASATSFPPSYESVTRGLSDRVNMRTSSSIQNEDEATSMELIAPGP
With `CCN(CC)CCOC(=O)C(c1ccccc1)c1ccccc1` [Adiphenine hydrochloride], the inhibition at 10 µM amounted to 90.4%.

As to `COc1ccc(-c2cc(=S)ss2)cc1` [Anethole-trithione], the inhibition at 10 µM came to 78.5%.

Regarding `CCCCOc1cc(C(=O)OCCN(CC)CC)ccc1N` [Benoxinate hydrochloride], the inhibition at 10 µM was determined as 83.7%.

On to `O=C(CCCN1CCC(n2c(O)nc3ccccc32)CC1)c1ccc(F)cc1` [Benperidol], for which the inhibition at 10 µM was determined as 84.2%.

For the compound `CCCCNc1ccc(C(=O)OCCOCCOCCOCCOCCOCCOCCOCCOCCOC)cc1` [Benzonatate], the inhibition at 10 µM was determined as 79.9%.

Take `CN(C)CCCOc1nn(Cc2ccccc2)c2ccccc12` [Benzydamine hydrochloride]: the inhibition at 10 µM was 83.6%.

For the compound `CC(C)COCC(CN(Cc1ccccc1)c1ccccc1)N1CCCC1` (stereo not drawn) [Bepridil hydrochloride], the inhibition at 10 µM is 89.1%.

Consider `CCCCCCNC(=O)n1cc(F)c(=O)[nH]c1=O` [Carmofur], for which the inhibition at 10 µM worked out at 124%.

On to `COc1ccccc1OCCNCC(O)COc1cccc2[nH]c3ccccc3c12` (stereo not drawn) [Carvedilol], for which the inhibition at 10 µM came to 104%.

As for `CN(C)CC/C=C1/c2ccccc2Sc2ccc(Cl)cc21` [Chlorprothixene hydrochloride], the inhibition at 10 µM stood at 77.4%.

As for `CCCCOc1cc(C(=O)NCCN(CC)CC)c2ccccc2n1` [Dibucaine], the inhibition at 10 µM amounted to 79.4%.

`CCCCc1cc2ccccc2c(OCCN(C)C)n1` [Dimethisoquin hydrochloride]: the inhibition at 10 µM stood at 75.5%.

Consider `COc1ccc(C(=O)c2ccccc2O)c(O)c1` [Dioxybenzone], for which the inhibition at 10 µM came to 100%.

On to `O=C(Nc1ccccc1)OCC(CN1CCCCC1)OC(=O)Nc1ccccc1` (stereo not drawn) [Diperodon hydrochloride], for which the inhibition at 10 µM came out at 92.2%.

On to `COc1cc2nc(N3CCN(C(=O)C4COc5ccccc5O4)CC3)nc(N)c2cc1OC` (stereo not drawn) [Doxazosin mesylate], for which the inhibition at 10 µM is 76.1%.

As to `CN(C)CCC=C1c2ccccc2COc2ccccc21` [Doxepin hydrochloride], the inhibition at 10 µM amounted to 88.7%.

With `CCN(CC)CCOC(=O)C(c1ccccc1)C1CCCCC1` (stereo not drawn) [Drofenine hydrochloride], the inhibition at 10 µM was determined as 76.8%.

Consider `O=C(CCCN1CC=C(n2c(=O)[nH]c3ccccc32)CC1)c1ccc(F)cc1` [Droperidol], for which the inhibition at 10 µM turned out to be 87.6%.

With `CCCCOc1ccc(C(=O)CCN2CCCCC2)cc1` [Dyclonine hydrochloride], the inhibition at 10 µM was 99%.

For `C[C@]12CC[C@@H]3c4ccc(O)cc4CC[C@H]3[C@@H]1CCC2=O` [Estrone], the inhibition at 10 µM worked out at 78.2%.

With `CCN(CC)C(C)CN1c2ccccc2Sc2ccccc21` (stereo not drawn) [Ethopropazine hydrochloride], the inhibition at 10 µM came out at 85.5%.

On to `NC(=O)OCC(COC(N)=O)c1ccccc1` [Felbamate], for which the inhibition at 10 µM was 78.6%.

Take `CC(NCCC(c1ccccc1)c1ccccc1)c1ccccc1` (stereo not drawn) [Fendiline hydrochloride]: the inhibition at 10 µM came out at 91.3%.

`CC(Cc1ccc(O)cc1)NCC(O)c1cc(O)cc(O)c1` (stereo not drawn) [Fenoterol hydrobromide]: the inhibition at 10 µM came out at 78.3%.

Regarding `CS(=O)(=O)c1ccc([C@@H](O)[C@@H](CF)NC(=O)C(Cl)Cl)cc1` [Florfenicol], the inhibition at 10 µM is 77.5%.

Regarding `Fc1ccc(C(c2ccc(F)cc2)N2CCN(C/C=C/c3ccccc3)CC2)cc1` [Flunarizine dihydrochloride], the inhibition at 10 µM was found to be 96.6%.

Turning to `CC(C)(C)NC[C@H](O)c1ccc(O)c(CO)c1` [Levalbuterol hydrochloride], the inhibition at 10 µM was found to be 85.3%.

Turning to `C[C@H](N)[C@H](O)c1ccc(O)c(O)c1` [Levonordefrin], the inhibition at 10 µM was 107%.

With `CCC(=O)O[C@@](Cc1ccccc1)(c1ccccc1)[C@@H](C)CN(C)C` [Levopropoxyphene napsylate], the inhibition at 10 µM was 95.1%.

On to `Cc1cccc(C)c1NC(=O)CN1CCN(CCCC(c2ccc(F)cc2)c2ccc(F)cc2)CC1` [Lidoflazine], for which the inhibition at 10 µM came to 92.7%.

As to `Cc1cccc(C)c1OCC(=O)N[C@@H](Cc1ccccc1)[C@@H](O)C[C@H](Cc1ccccc1)NC(=O)[C@H](C(C)C)N1CCCNC1=O` [Lopinavir], the inhibition at 10 µM was found to be 76.8%.

As for `O=c1cc(-c2ccc(O)c(O)c2)oc2cc(O)cc(O)c12` [Luteolin], the inhibition at 10 µM is 86.2%.

`CCOC(=O)Nc1ccc2c(c1)N(C(=O)CCN1CCOCC1)c1ccccc1S2` [Moricizine hydrochloride]: the inhibition at 10 µM turned out to be 75.8%.

For the compound `CN(C/C=C/c1ccccc1)Cc1cccc2ccccc12` [Naftifine hydrochloride], the inhibition at 10 µM is 96.1%.

Regarding `OC(CNCC(O)C1CCc2cc(F)ccc2O1)C1CCc2cc(F)ccc2O1` (stereo not drawn) [Nebivolol hydrochloride], the inhibition at 10 µM came out at 82.7%.

In the case of `CCc1nn(CCCN2CCN(c3cccc(Cl)c3)CC2)c(=O)n1CCOc1ccccc1` [Nefazodone hydrochloride], the inhibition at 10 µM was found to be 88.5%.

Take `CO[C@]12C[C@@H](COC(=O)c3cncc(Br)c3)CN(C)[C@@H]1Cc1cn(C)c3cccc2c13` [Nicergoline]: the inhibition at 10 µM stood at 82.3%.

In the case of `CNCCC=C1c2ccccc2CCc2ccccc21` [Nortriptyline hydrochloride], the inhibition at 10 µM came out at 85.9%.

Take `CN(C(=O)CN(CCO)CC(=O)N(C)C(C)(C)Cc1ccccc1)C(C)(C)Cc1ccccc1` [Oxethazaine]: the inhibition at 10 µM turned out to be 92.9%.

Regarding `CCN(CC)CC#CCOC(=O)C(O)(c1ccccc1)C1CCCCC1` (stereo not drawn) [Oxybutynin chloride], the inhibition at 10 µM is 77.3%.

With `C1CCC(C(CC2CCCCN2)C2CCCCC2)CC1` (stereo not drawn) [Perhexiline maleate], the inhibition at 10 µM amounted to 79.2%.

For the compound `O=C1[C@H]2CCCC[C@H]2C(=O)N1CCCCN1CCN(c2nsc3ccccc23)CC1` [Perospirone], the inhibition at 10 µM stood at 89.7%.

For `CC(COc1ccccc1)N(CCCl)Cc1ccccc1` (stereo not drawn) [Phenoxybenzamine hydrochloride], the inhibition at 10 µM was 86.1%.

As to `CN1CCC(=C2c3ccccc3Sc3ccccc32)CC1` [Pimethixene maleate], the inhibition at 10 µM is 88.5%.

For the compound `O=c1[nH]c2ccccc2n1C1CCN(CCCC(c2ccc(F)cc2)c2ccc(F)cc2)CC1` [Pimozide], the inhibition at 10 µM amounted to 101%.

Turning to `CN(C)CCCN1c2ccccc2Sc2ccccc21` [Promazine hydrochloride], the inhibition at 10 µM came out at 88.1%.

`CC(CN1c2ccccc2Sc2ccccc21)N(C)C` (stereo not drawn) [Promethazine hydrochloride]: the inhibition at 10 µM was 78.5%.

Consider `CCCOc1ccc(C(=O)OCCN(CC)CC)cc1N` [Proparacaine hydrochloride], for which the inhibition at 10 µM is 103%.

As for `CNCCCC1c2ccccc2C=Cc2ccccc21` [Protriptyline hydrochloride], the inhibition at 10 µM was 80%.

As to `CC(C)(C)NCC(O)c1ccc(O)c(CO)c1` (stereo not drawn) [Salbutamol], the inhibition at 10 µM is 78%.

Regarding `OCc1cc(C(O)CNCCCCCCOCCCCc2ccccc2)ccc1O` (stereo not drawn) [Salmeterol], the inhibition at 10 µM stood at 99.6%.

As to `CC(C)(C)NC(=O)[C@@H]1C[C@@H]2CCCC[C@@H]2CN1C[C@@H](O)[C@H](Cc1ccccc1)NC(=O)[C@H](CC(N)=O)NC(=O)c1ccc2ccccc2n1` [Saquinavir mesylate], the inhibition at 10 µM was 92.8%.

For `O=C(CCCN1CCC2(CC1)C(=O)NCN2c1ccccc1)c1ccc(F)cc1` [Spiperone], the inhibition at 10 µM is 82%.

On to `CCCCCCCCNC(C)C(O)c1ccc(SC(C)C)cc1` (stereo not drawn) [Suloctidil], for which the inhibition at 10 µM is 93.8%.
